Data as given in patent publication US6339042B1, “Herbicidal N-cyclohexadienyl heteroaryloxyacetamides” (American Cyanamid Co., priority 1999, dated 2002).

Legend:
Conditions in all cases: three weeks after treatment
Echinochloa crus-galli [1] = experiment: Post-emergence herbicidal evaluation, ECHCG
Setaria viridis [2] = experiment: Post-emergence herbicidal evaluation, SETVI
Method: The compounds of the invention are tested for pre- and post-emergence herbicidal activity.
(§2) Each pot is examined three weeks after treatment and phytotoxicity is assessed according to the rating system set forth below.
(§3) These acetone solutions are diluted with water and the resulting formulations applied at dosage levels equivalent of about 0.4 to 0.1 kg per hectare of test compound per pot. After spraying the plants are placed on greenhouse benches and are cared for in the usual manner, commensurate with conventional greenhouse practices.

Amaranthus tuberculatus [3] = experiment: Pre-emergence herbicidal evaluation, AMATA; assay type: in vivo
From the text: (§1) The treated pots are then placed on greenhouse benches, watered and cared for in accordance with conventional greenhouse procedures.

Glycine max [4] = experiment: Pre-emergence herbicidal evaluation, GLXMA; assay type: in vivo
From the text: as §1

Zea mays [5] = experiment: Post-emergence herbicidal evaluation, ZEAMX
Setaria viridis [6] = experiment: Pre-emergence herbicidal evaluation, SETVI; assay type: in vivo
From the text: as §1

Alopecurus myosuroides [7] = experiment: Post-emergence herbicidal evaluation, ALOMY
Glycine max [8] = experiment: Post-emergence herbicidal evaluation, GLXMA
Zea mays [9] = experiment: Pre-emergence herbicidal evaluation, ZEAMX; assay type: in vivo
From the text: as §1

Amaranthus tuberculatus [10] = experiment: Post-emergence herbicidal evaluation, AMATA; assay type: in vivo
Triticum aestivum [11] = experiment: Pre-emergence herbicidal evaluation, TRZAW; assay type: in vivo
From the text: as §1

Lolium perenne [12] = experiment: Post-emergence herbicidal evaluation, LOLPE
Method: as §2, §3

Hordeum vulgare [13] = experiment: Pre-emergence herbicidal evaluation, HORVW; assay type: in vivo
From the text: as §1

Oryza sativum [14] = experiment: Post-emergence herbicidal evaluation, ORYSA
Hordeum vulgare [15] = experiment: Post-emergence herbicidal evaluation, HORVW
Method: as §2, §3

Triticum aestivum [16] = experiment: Post-emergence herbicidal evaluation, TRZAW
Apera spica venti [17] = experiment: Pre-emergence herbicidal evaluation, APESV; assay type: in vivo
From the text: as §1

Echinochloa crus-galli [18] = experiment: Pre-emergence herbicidal evaluation, ECHCG; assay type: in vivo
From the text: as §1

Lolium perenne [19] = experiment: Pre-emergence herbicidal evaluation, LOLPE; assay type: in vivo
From the text: as §1

Oryza sativum [20] = experiment: Pre-emergence herbicidal evaluation, ORYSA; assay type: in vivo
From the text: as §1

Apera spica venti [21] = experiment: Post-emergence herbicidal evaluation, APESV
Alopecurus myosuroides [22] = experiment: Pre-emergence herbicidal evaluation, ALOMY; assay type: in vivo
From the text: as §1

Galium aparine = experiment: Post-emergence herbicidal evaluation, GALAP

With CCc1nnc(OCC(=O)N(CC)C2=CC(C)(C)CC(C)=C2)s1 [Example 6] the “phytotoxicity rating ECHCG” value (Echinochloa crus-galli [1]; 0.100 kg/ha) was 0 (0 - No effect), the “phytotoxicity rating ECHCG” value (Echinochloa crus-galli [1]; 0.200 kg/ha) was 0 (0 - No effect) and the “phytotoxicity rating ECHCG” value (Echinochloa crus-galli [1]; 0.400 kg/ha) was 0 (0 - No effect). For the same compound, the “phytotoxicity rating SETVI” value (Setaria viridis [2]; 0.100 kg/ha) was 0 (0 - No effect), the “phytotoxicity rating SETVI” value (Setaria viridis [2]; 0.200 kg/ha) was 0 (0 - No effect) and the “phytotoxicity rating SETVI” value (Setaria viridis [2]; 0.400 kg/ha) was 0 (0 - No effect). For the same compound, the “phytotoxicity rating AMATA” value (Amaranthus tuberculatus [3]; 0.100 kg/ha) was 0 (0 - No effect), the “phytotoxicity rating AMATA” value (Amaranthus tuberculatus [3]; 0.200 kg/ha) was 0 (0 - No effect) and the “phytotoxicity rating AMATA” value (Amaranthus tuberculatus [3]; 0.400 kg/ha) was 0 (0 - No effect). For the same compound, the “phytotoxicity rating AMATA” value (Amaranthus tuberculatus [3]; 0.800 kg/ha) was 5 (5 - Definite injury), the “phytotoxicity rating GLXMA” value (Glycine max [4]; 0.100 kg/ha) was 0 (0 - No effect) and the “phytotoxicity rating GLXMA” value (Glycine max [4]; 0.200 kg/ha) was 0 (0 - No effect). The “phytotoxicity rating GLXMA” value (Glycine max [4]; 0.400 kg/ha) was 0 (0 - No effect), the “phytotoxicity rating GLXMA” value (Glycine max [4]; 0.800 kg/ha) was 0 (0 - No effect) and the “phytotoxicity rating ZEAMX” value (Zea mays [5]; 0.100 kg/ha) was 0 (0 - No effect). The “phytotoxicity rating ZEAMX” value (Zea mays [5]; 0.200 kg/ha) was 0 (0 - No effect), the “phytotoxicity rating ZEAMX” value (Zea mays [5]; 0.400 kg/ha) was 0 (0 - No effect) and the “phytotoxicity rating SETVI” value (Setaria viridis [6]; 0.200 kg/ha) was 5 (5 - Definite injury). The “phytotoxicity rating SETVI” value (Setaria viridis [6]; 0.400 kg/ha) was 8 (8 - Approaching complete kill), the “phytotoxicity rating SETVI” value (Setaria viridis [6]; 0.800 kg/ha) was 9 (9 - Complete kill) and the “phytotoxicity rating ALOMY” value (Alopecurus myosuroides [7]; 0.100 kg/ha) was 0 (0 - No effect). The “phytotoxicity rating ALOMY” value (Alopecurus myosuroides [7]; 0.200 kg/ha) was 4 (4 - Injury), the “phytotoxicity rating ALOMY” value (Alopecurus myosuroides [7]; 0.400 kg/ha) was 8 (8 - Approaching complete kill) and the “phytotoxicity rating GLXMA” value (Glycine max [8]; 0.100 kg/ha) was 3 (3 - Moderate effect). For the same compound, the “phytotoxicity rating GLXMA” value (Glycine max [8]; 0.200 kg/ha) was 4 (4 - Injury), the “phytotoxicity rating GLXMA” value (Glycine max [8]; 0.400 kg/ha) was 4 (4 - Injury) and the “phytotoxicity rating ZEAMX” value (Zea mays [9]; 0.100 kg/ha) was 0 (0 - No effect). For the same compound, the “phytotoxicity rating ZEAMX” value (Zea mays [9]; 0.200 kg/ha) was 0 (0 - No effect), the “phytotoxicity rating ZEAMX” value (Zea mays [9]; 0.400 kg/ha) was 0 (0 - No effect) and the “phytotoxicity rating ZEAMX” value (Zea mays [9]; 0.800 kg/ha) was 0 (0 - No effect). For the same compound, the “phytotoxicity rating AMATA” value (Amaranthus tuberculatus [10]; 0.100 kg/ha) was 0 (0 - No effect), the “phytotoxicity rating AMATA” value (Amaranthus tuberculatus [10]; 0.200 kg/ha) was 0 (0 - No effect) and the “phytotoxicity rating AMATA” value (Amaranthus tuberculatus [10]; 0.400 kg/ha) was 0 (0 - No effect). For the same compound, the “phytotoxicity rating TRZAW” value (Triticum aestivum [11]; 0.100 kg/ha) was 0 (0 - No effect), the “phytotoxicity rating TRZAW” value (Triticum aestivum [11]; 0.200 kg/ha) was 0 (0 - No effect) and the “phytotoxicity rating TRZAW” value (Triticum aestivum [11]; 0.400 kg/ha) was 0 (0 - No effect). The “phytotoxicity rating TRZAW” value (Triticum aestivum [11]; 0.800 kg/ha) was 2 (2 - Slight effect), the “phytotoxicity rating LOLPE” value (Lolium perenne [12]; 0.100 kg/ha) was 0 (0 - No effect) and the “phytotoxicity rating LOLPE” value (Lolium perenne [12]; 0.200 kg/ha) was 0 (0 - No effect). The “phytotoxicity rating LOLPE” value (Lolium perenne [12]; 0.400 kg/ha) was 0 (0 - No effect), the “phytotoxicity rating HORVW” value (Hordeum vulgare [13]; 0.100 kg/ha) was 0 (0 - No effect) and the “phytotoxicity rating HORVW” value (Hordeum vulgare [13]; 0.200 kg/ha) was 0 (0 - No effect). The “phytotoxicity rating HORVW” value (Hordeum vulgare [13]; 0.400 kg/ha) was 1 (1 - Trace effect), the “phytotoxicity rating HORVW” value (Hordeum vulgare [13]; 0.800 kg/ha) was 3 (3 - Moderate effect) and the “phytotoxicity rating ORYSA” value (Oryza sativum [14]; 0.100 kg/ha) was 0 (0 - No effect). For the same compound, the “phytotoxicity rating ORYSA” value (Oryza sativum [14]; 0.200 kg/ha) was 1 (1 - Trace effect), the “phytotoxicity rating ORYSA” value (Oryza sativum [14]; 0.400 kg/ha) was 2 (2 - Slight effect) and the “phytotoxicity rating HORVW” value (Hordeum vulgare [15]; 0.100 kg/ha) was 0 (0 - No effect). For the same compound, the “phytotoxicity rating HORVW” value (Hordeum vulgare [15]; 0.200 kg/ha) was 0 (0 - No effect), the “phytotoxicity rating HORVW” value (Hordeum vulgare [15]; 0.400 kg/ha) was 0 (0 - No effect) and the “phytotoxicity rating TRZAW” value (Triticum aestivum [16]; 0.100 kg/ha) was 0 (0 - No effect). For the same compound, the “phytotoxicity rating TRZAW” value (Triticum aestivum [16]; 0.200 kg/ha) was 0 (0 - No effect), the “phytotoxicity rating TRZAW” value (Triticum aestivum [16]; 0.400 kg/ha) was 1 (1 - Trace effect) and the “phytotoxicity rating APESV” value (Apera spica venti [17]; 0.100 kg/ha) was 0 (0 - No effect). For the same compound, the “phytotoxicity rating APESV” value (Apera spica venti [17]; 0.200 kg/ha) was 0 (0 - No effect), the “phytotoxicity rating APESV” value (Apera spica venti [17]; 0.400 kg/ha) was 0 (0 - No effect) and the “phytotoxicity rating APESV” value (Apera spica venti [17]; 0.800 kg/ha) was 9 (9 - Complete kill). For the same compound, the “phytotoxicity rating ECHCG” value (Echinochloa crus-galli [18]; 0.100 kg/ha) was 3 (3 - Moderate effect), the “phytotoxicity rating ECHCG” value (Echinochloa crus-galli [18]; 0.200 kg/ha) was 6 (6 - Herbicidal effect) and the “phytotoxicity rating ECHCG” value (Echinochloa crus-galli [18]; 0.400 kg/ha) was 8 (8 - Approaching complete kill). For the same compound, the “phytotoxicity rating ECHCG” value (Echinochloa crus-galli [18]; 0.800 kg/ha) was 9 (9 - Complete kill), the “phytotoxicity rating LOLPE” value (Lolium perenne [19]; 0.100 kg/ha) was 0 (0 - No effect) and the “phytotoxicity rating LOLPE” value (Lolium perenne [19]; 0.200 kg/ha) was 0 (0 - No effect). For the same compound, the “phytotoxicity rating LOLPE” value (Lolium perenne [19]; 0.400 kg/ha) was 5 (5 - Definite injury), the “phytotoxicity rating LOLPE” value (Lolium perenne [19]; 0.800 kg/ha) was 7 (7 - Good herbicidal effect) and the “phytotoxicity rating ORYSA” value (Oryza sativum [20]; 0.100 kg/ha) was 0 (0 - No effect). The “phytotoxicity rating ORYSA” value (Oryza sativum [20]; 0.200 kg/ha) was 0 (0 - No effect), the “phytotoxicity rating ORYSA” value (Oryza sativum [20]; 0.400 kg/ha) was 3 (3 - Moderate effect) and the “phytotoxicity rating ORYSA” value (Oryza sativum [20]; 0.800 kg/ha) was 7 (7 - Good herbicidal effect). The “phytotoxicity rating APESV” value (Apera spica venti [21]; 0.100 kg/ha) was 0 (0 - No effect), the “phytotoxicity rating APESV” value (Apera spica venti [21]; 0.200 kg/ha) was 0 (0 - No effect) and the “phytotoxicity rating APESV” value (Apera spica venti [21]; 0.400 kg/ha) was 1 (1 - Trace effect). The “phytotoxicity rating ALOMY” value (Alopecurus myosuroides [22]; 0.200 kg/ha) was 5 (5 - Definite injury), the “phytotoxicity rating ALOMY” value (Alopecurus myosuroides [22]; 0.400 kg/ha) was 6 (6 - Herbicidal effect) and the “phytotoxicity rating ALOMY” value (Alopecurus myosuroides [22]; 0.800 kg/ha) was 9 (9 - Complete kill). For the same compound, the “phytotoxicity rating GALAP” value (Galium aparine; 0.100 kg/ha) was 0 (0 - No effect), the “phytotoxicity rating GALAP” value (Galium aparine; 0.200 kg/ha) was 0 (0 - No effect) and the “phytotoxicity rating GALAP” value (Galium aparine; 0.400 kg/ha) was 4 (4 - Injury).
